{"source": "paper PMC5695697", "about": "(Cell chemical biology, 2017)", "key": {"H3K9 acetylation": {"test_system": "H3K9 acetylation", "assay": "H3K9 acetylation Western blot in human NPCs and neurons", "type": "cell-based", "details": "ACY-1215 5 μM, tubastatin A 10 μM, CI-994 10 μM, Cpd-60 5 μM (Figure S1)"}, "PGRN protein": {"test_system": "PGRN protein", "type": "cell-based, human"}, "[1]": {"test_system": "recombinant human Class I HDACs (HDAC1, HDAC2, HDAC3)", "assay": "In vitro HDAC enzymatic assay with varied pre-incubation time", "type": "biochemical", "details": "pre-incubation 0–3 hours, Figure S5"}, "[2]": {"details": "2010, cited from earlier work"}, "GRN mRNA": {"test_system": "GRN mRNA", "assay": "GRN mRNA expression by qPCR in human iPSC-derived NPCs and neurons", "type": "cell-based"}, "MSR293 cells": {"test_system": "MSR293 cells", "assay": "GRN mRNA / PGRN expression in MSR293 cells", "type": "cell-based, human", "details": "MSR293 cells (HEK293 derivative), Figure S3"}, "FXN mRNA": {"test_system": "FXN mRNA", "assay": "FXN", "type": "cell-based, human", "details": "18-day neurons, 24 h; SAHA 10 μM, CI-994 10 μM, Cpd-60 5 μM"}, "[3]": {"test_system": "H3K27 acetylation on GRN promoter", "assay": "H3K27 acetylation ChIP-qPCR on GRN promoter/enhancer region in NPCs", "type": "cell-based, human", "details": "24 hours, panobinostat 0.5 μM, CI-994 10 μM; for H3K27 acetylation in ChIP Region 3: to varying levels"}, "HDAC": {"test_system": "HDAC", "details": "ref Schroeder et al., 2013; Chou et al., 2008; cited from earlier work"}, "[4]": {"details": "human NPCs, CI-994 for up to 72 hours"}, "[5]": {"details": "human neurons, CI-994 10 μM, 24 h"}}, "data": [{"smiles": "CN1CCc2c(c3ccccc3n2Cc2ccc(C(=O)NO)cc2)C1", "note": "[Tubastatin A]", "values": [{"measurement": "H3K9 acetylation", "setting": "H3K9 acetylation", "value": "robust effect"}]}, {"smiles": "CCCC(CCC)C(=O)O", "note": "[valproate, valproic acid]", "values": [{"measurement": "increase of PGRN protein expression compared to vehicle", "setting": "PGRN protein; cultured NPCs and neurons, valproate at doses lower than 1 mM (Figure S8)", "value": "1.3–1.5 ×"}, {"measurement": "change of potency with prolonged incubation (in vitro kinetic profile)", "setting": "[1]", "value": "did not increase"}, {"measurement": "serum concentration", "setting": "[2]; chronic treatment, ref Kalu", "value": "300 to 700", "unit": "µM"}, {"measurement": "Cmax", "setting": "[2]; read-out: brain concentration Cmax, estimated, ref Goldenberg", "value": 400, "unit": "µM"}]}, {"smiles": "CCC(=O)CCCCC[C@@H]1NC(=O)[C@H]2CCCCN2C(=O)[C@H]([C@@H](C)CC)NC(=O)[C@H](Cc2cn(OC)c3ccccc23)NC1=O", "note": "[apicidin]", "values": [{"measurement": "change of potency with prolonged incubation (in vitro kinetic profile)", "setting": "[1]", "value": "did not increase"}]}, {"smiles": "CC(=O)Nc1ccc(C(=O)Nc2ccccc2N)cc1", "note": "[CI-994]", "values": [{"measurement": "GRN mRNA levels, extended treatment", "setting": "GRN mRNA; [4]", "value": "did not significnatly enhance"}, {"measurement": "GRN mRNA", "setting": "GRN mRNA; [5]", "value": "statistically significant decrease"}, {"measurement": "intracellular PGRN", "setting": "PGRN protein; NPCs, CI-994 10 μM, 24 h", "value": "decrease"}, {"measurement": "secreted PGRN", "setting": "PGRN protein; NPCs, CI-994 10 μM, 24 h", "value": "decrease"}, {"measurement": "PGRN secreted protein expression, longer treatment times", "setting": "PGRN protein; NPCs, CI-994 10 μM, longer treatment times, vs vehicle", "value": "decreased"}, {"measurement": "PGRN protein levels, extended treatment", "setting": "PGRN protein; [4]", "value": "did not significnatly enhance"}, {"measurement": "intracellular PGRN protein", "setting": "PGRN protein; [5]", "value": "statistically significant decrease"}, {"measurement": "H3K9 acetylation", "setting": "H3K9 acetylation", "value": "significantly increase"}, {"measurement": "upregulating GRN mRNA or PGRN", "setting": "MSR293 cells", "value": "ineffective"}, {"measurement": "FXN (frataxin) mRNA levels", "setting": "FXN mRNA", "value": "significantly increased"}, {"measurement": "change of potency with prolonged incubation (in vitro kinetic profile)", "setting": "[1]", "value": "slow-binder"}, {"measurement": "H3K27 acetylation in ChIP Region 2", "setting": "[3]", "value": "Neither compound treatment increased"}, {"measurement": "H3K27 acetylation in ChIP Region 3", "setting": "[3]", "value": "increased"}, {"measurement": "binding kinetics, mechanism of action", "setting": "HDAC", "value": "slow-on/slow-off"}]}, {"smiles": "O=C(CCCCCCC(=O)Nc1ccccc1)NO", "note": "[SAHA]", "values": [{"measurement": "upregulating GRN mRNA or PGRN", "setting": "MSR293 cells", "value": "effective"}, {"measurement": "FXN (frataxin) mRNA levels", "setting": "FXN mRNA", "value": "does not"}]}, {"smiles": "O=C(CCCCCCNC(=O)c1cnc(N(c2ccccc2)c2ccccc2)nc1)NO", "note": "[ACY-1215]", "values": [{"measurement": "H3K9 acetylation", "setting": "H3K9 acetylation", "value": "as strong of an induction"}]}, {"smiles": "Cc1[nH]c2ccccc2c1CCNCc1ccc(/C=C/C(=O)NO)cc1", "note": "[panobinostat]", "values": [{"measurement": "H3K27 acetylation in ChIP Region 1 on the GRN promoter", "setting": "[3]", "value": "significantly increased"}, {"measurement": "H3K27 acetylation in ChIP Region 2", "setting": "[3]", "value": "Neither compound treatment increased"}, {"measurement": "H3K27 acetylation in ChIP Region 3", "setting": "[3]", "value": "increased"}]}, {"smiles": "O=C(NCC1(c2nc(-c3ccccc3)cs2)CCOCC1)c1cccc(-c2noc(C(F)(F)F)n2)c1", "note": "[TMP269]", "values": [{"measurement": "increasing GRN mRNA in NPCs", "setting": "GRN mRNA; NPCs only (Figure S2)", "value": "not effective"}]}]}
